Where a name gives a salt, the structure may show the parent alone.
Tests used:
[1] = target: Bcl-2 protein (histag-Bcl-2, UniProtKB P10415) (Homo sapiens (Human), UniProt P10415); experiment: Inhibition of Bcl-2 by the fluorescence polarisation technique; format: binding; settings: fluorescence polarisation test; method A, or method B where underlined (underlining not visible); read-out: IC50 (nM) Bcl-2 FP
Text: Inhibition of Bcl-2 by the fluorescence polarisation technique

[2] = test system: RS4;11 leukaemia tumour line; experiment: In vitro cytotoxicity, Microculture Tetrazolium Assay (MTT); format: cell-based; settings: Homo sapiens; RS4;11 cells, 48 hours exposure
Method: The cytotoxicity studies were carried out on the RS4;11 leukaemia tumour line.
The cells are distributed onto microplates and exposed to the test compounds for 48 hours. The cell viability is then quantified by a colorimetric assay, the Microculture Tetrazolium Assay (Cancer Res., 1987, 47, 939-942).

Bcl-2 protein, sequence (P10415 whole entry): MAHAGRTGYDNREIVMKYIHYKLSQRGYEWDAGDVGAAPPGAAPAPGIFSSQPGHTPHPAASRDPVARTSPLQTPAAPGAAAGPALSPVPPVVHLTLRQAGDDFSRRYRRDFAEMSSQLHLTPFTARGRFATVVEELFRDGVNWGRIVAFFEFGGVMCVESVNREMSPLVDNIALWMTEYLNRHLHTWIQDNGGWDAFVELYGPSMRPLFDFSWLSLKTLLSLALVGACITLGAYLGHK

Compound: COc1cc(-n2nc(C(=O)N(c3ccccc3)c3ccccc3)c3ccccc32)c(C(=O)N2Cc3ccccc3C[C@H]2CN)cc1O [Example 135, 1-{2-[(3S)-3-(Aminomethyl)-1,2,3,4-tetrahydroisoquinoline-2-carbonyl]-4-hydroxy-5-methoxyphenyl}-N,N-diphenyl-1H-indazole-3-carboxamide]
- IC50 [1]: 10.4 nM
- IC50 [2]: 461 nM

Compound: Cc1cc(C(=O)N(c2ccc(O)cc2)c2cnc3c(ccn3C)c2)cn1-c1cc2c(cc1C(=O)N1Cc3ccccc3C[C@H]1CN1CCOCC1)OCO2 [Example 206, N-(4-Hydroxyphenyl)-5-methyl-N-(1-methyl-1H-pyrrolo[2,3-b]pyridin-5-yl)-1-(6-{[(3S)-3-(morpholin-4-ylmethyl)-3,4-dihydroisoquinolin-2(1H)-yl]-carbonyl}-1,3-benzodioxol-5-yl)-1H-pyrrole-3-carboxamide hydrochloride]
- IC50 [1]: 16.7 nM
- IC50 [2]: 72.4 nM

Compound: CN1CCN(C[C@@H]2Cc3ccccc3CN2C(=O)c2ccc(Br)cc2-n2cc(C(=O)N(c3ccc(O)cc3)c3ccc4c(ccn4C)c3)c3ccccc32)CC1 [Example 69, 1-(5-Bromo-2-{[(3S)-3-[(4-methylpiperazin-1-yl)methyl]-3,4-dihydroisoquinolin-2(1H)-yl]carbonyl}phenyl)-N-(4-hydroxyphenyl)-N-(1-methyl-1H-indol-5-yl)-1H-indole-3-carboxamide hydrochloride]
- IC50 [1]: 9 nM
- IC50 [2]: 67.6 nM

Compound: Cc1cc(C(=O)N(c2ccc(O)cc2)c2ccc3c(ccn3C)c2)cn1-c1cc2c(cc1C(=O)N1Cc3ccccc3C[C@H]1CN1CCOCC1)OCO2 [Example 109, N-(4-Hydroxyphenyl)-5-methyl-N-(1-methyl-1H-indol-5-yl)-1-(6-{[(3S)-3-(morpholin-4-ylmethyl)-3,4-dihydroisoquinolin-2(1H)-yl]carbonyl}-1,3-benzodioxol-5-yl)-1H-pyrrole-3-carboxamide hydrochloride]
- IC50 [1]: 4.4 nM
- IC50 [2]: 116 nM

Compound: CN1CCN(C[C@@H]2Cc3ccccc3CN2C(=O)c2cc3c(cc2-n2cc(C(=O)N(c4ccccc4)c4ccc(O)cc4)c4cc(F)ccc42)OCO3)CC1 [Example 195, 5-Fluoro-N-(4-hydroxyphenyl)-1-{6-[(3S)-3-[(4-methylpiperazin-1-yl)methyl]-1,2,3,4-tetrahydroisoquinoline-2-carbonyl]-2H-1,3-benzodioxol-5-yl}-N-phenyl-1H-indole-3-carboxamide]
- IC50 [1]: 31.1 nM
- IC50 [2]: 507 nM

Compound: Cc1cc(C(=O)N(c2ccc(O)cc2)c2ccc3c(c2)CN(C)C3)cn1-c1cc2c(cc1C(=O)N1Cc3ccccc3C[C@H]1C)OCO2 [Example 114, N-(4-Hydroxyphenyl)-5-methyl-N-(2-methyl-2,3-dihydro-1H-isoindol-5-yl)-1-(6-{[(3R)-3-methyl-3,4-dihydroisoquinolin-2(1H)-yl]carbonyl}-1,3-benzodioxol-5-yl)-1H-pyrrole-3-carboxamide hydrochloride]
- IC50 [1]: 23.7 nM
- IC50 [2]: 726 nM

Compound: CC(C)CC1Oc2cc(C(=O)N3Cc4ccccc4C[C@H]3CN)c(-n3cc(C(=O)N(c4ccccc4)c4ccc(O)cc4)c4ccccc43)cc2O1 (stereo partly drawn) [Example 158, 1-{6-[(3S)-3-(Aminomethyl)-1,2,3,4-tetrahydroisoquinoline-2-carbonyl]-2-(2-methylpropyl)-2H-1,3-benzodioxol-5-yl}-N-(4-hydroxyphenyl)-N-phenyl-1H-indole-3-carboxamide]
- IC50 [1]: 54.1 nM
- IC50 [2]: 834 nM

Compound: Cc1cc(C(=O)N(c2ccccc2)c2ccc(O)cc2)cn1-c1cc(Cl)ccc1C(=O)N1Cc2ccccc2C[C@H]1CN1CCN(C)CC1 [Example 26, 1-(5-Chloro-2-{[(3S)-3-[(4-methylpiperazin-1-yl)methyl]-3,4-dihydroisoquinolin-2(1H)-yl]carbonyl}phenyl)-N-(4-hydroxyphenyl)-5-methyl-N-phenyl-1H-pyrrole-3-carboxamide]
- IC50 [1]: 7.5 nM
- IC50 [2]: 171 nM

Compound: CN1CCN(C[C@@H]2Cc3ccccc3CN2C(=O)c2cc3c(cc2-n2cc(C(=O)N(c4ccccc4)c4ccc(O)cc4)c4ccc(F)cc42)OCO3)CC1 [Example 197, 6-Fluoro-N-(4-hydroxyphenyl)-1-{6-[(3S)-3-[(4-methylpiperazin-1-yl)methyl]-1,2,3,4-tetrahydroisoquinoline-2-carbonyl]-2H-1,3-benzodioxol-5-yl}-N-phenyl-1H-indole-3-carboxamide]
- IC50 [1]: 9.8 nM
- IC50 [2]: 328 nM

Compound: CN1CCN(C[C@@H]2Cc3ccccc3CN2C(=O)c2cc3c(cc2-n2cc(C(=O)N(c4ccc(O)cc4)c4ccc5c(ccn5C)c4)c4ccccc42)OCO3)CC1 [Example 45, N-(4-Hydroxyphenyl)-N-(1-methyl-1H-indol-5-yl)-1-(6-{[(3S)-3-[(4-methylpiperazin-1-yl)methyl]-3,4-dihydroisoquinolin-2(1H)-yl]carbonyl}-1,3-benzodioxol-5-yl)-1H-indole-3-carboxamide]
- IC50 [1]: 6.7 nM
- IC50 [2]: 36.5 nM

Compound: NC[C@@H]1Cc2ccccc2CN1C(=O)c1cc2c(cc1-n1cc(C(=O)N(c3ccccc3)c3ccc(O)cc3)c3ccccc31)OCO2 [Example 153, 1-{6-[(3S)-3-(Aminomethyl)-1,2,3,4-tetrahydroisoquinoline-2-carbonyl]-2H-1,3-benzodioxol-5-yl}-N-(4-hydroxyphenyl)-N-phenyl-1H-indole-3-carboxamide]
- IC50 [1]: 286 nM
- IC50 [2]: 237 nM

Compound: Cc1cc(C(=O)N(c2ccc(O)cc2)c2ccc(F)cc2)cn1-c1cc(Cl)ccc1C(=O)N1Cc2ccccc2C[C@H]1CN1CCN(C)CC1 [Example 66, 1-(5-Chloro-2-{[(3S)-3-[(4-methylpiperazin-1-yl)methyl]-3,4-dihydroisoquinolin-2(1H)-yl]carbonyl}phenyl)-N-(4-fluorophenyl)-N-(4-hydroxyphenyl)-5-methyl-1H-pyrrole-3-carboxamide]
- IC50 [1]: 6.6 nM
- IC50 [2]: 148 nM

Compound: Cc1cc(C(=O)N(c2ccccc2)c2ccc(O)cc2)cn1-c1cc(Br)ccc1C(=O)N1Cc2ccccc2C[C@H]1CN1C[C@H]2CCC[C@H]2C1 [Example 38, 1-(5-Bromo-2-{[(3S)-3-[(3aR,6aS)-hexahydrocyclopenta[c]pyrrol-2(1H)-ylmethyl]-3,4-dihydroisoquinolin-2(1H)-yl]carbonyl}phenyl)-N-(4-hydroxyphenyl)-5-methyl-N-phenyl-1H-pyrrole-3-carboxamide]
- IC50 [1]: 238 nM
- IC50 [2]: 1780 nM

Compound: COc1cc(-n2cc(C(=O)N(c3ccccc3)c3ccccc3)c3ccccc32)c(C(=O)N2Cc3ccccc3C[C@H]2CN2CCN(C)CC2)cc1O [Example 181, 1-{4-Hydroxy-5-methoxy-2-[(3S)-3-[(4-methylpiperazin-1-yl)methyl]-1,2,3,4-tetrahydroisoquinoline-2-carbonyl]phenyl}-N,N-diphenyl-1H-indole-3-carboxamide dihydrochloride]
- IC50 [1]: 6.9 nM
- IC50 [2]: 205 nM

Compound: CC(C)c1ccc(N(C(=O)c2cn(-c3cc4c(cc3C(=O)N3Cc5ccccc5C[C@H]3CN3CCN(C)CC3)OCO4)c3ccccc23)c2ccc(O)c(Cl)c2)cc1 [Example 64, N-(3-Chloro-4-hydroxyphenyl)-1-(6-{[(3S)-3-[(4-methylpiperazin-1-yl)methyl]-3,4-dihydroisoquinolin-2(1H)-yl]carbonyl}-1,3-benzodioxol-5-yl)-N-[4-(propan-2-yl)phenyl]-1H-indole-3-carboxamide hydrochloride]
- IC50 [1]: 296 nM
- IC50 [2]: 1360 nM

Compound: CN1CCN(C[C@@H]2Cc3ccccc3CN2C(=O)c2cc3c(cc2-n2cc(C(=O)N(c4ccc(O)cc4)c4ccc(OC(F)(F)F)cc4)c4ccccc42)OCO3)CC1 [Example 51, N-(4-Hydroxyphenyl)-1-(6-{[(3S)-3-[(4-methylpiperazin-1-yl)methyl]-3,4-dihydroisoquinolin-2(1H)-yl]carbonyl}-1,3-benzodioxol-5-yl)-N-[4-(trifluoro-methoxy)phenyl]-1H-indole-3-carboxamide]
- IC50 [1]: 6.9 nM
- IC50 [2]: 155 nM

Compound: Cc1cc(C(=O)N(c2ccc(O)cc2)c2ccc3[nH]ccc3c2)cn1-c1cc(Cl)ccc1C(=O)N1Cc2ccccc2C[C@H]1CN1CCN(C)CC1 [Example 86, 1-(5-Chloro-2-{[(3S)-3-[(4-methylpiperazin-1-yl)methyl]-3,4-dihydroisoquinolin-2(1H)-yl]carbonyl}phenyl)-N-(4-hydroxyphenyl)-N-(1H-indol-5-yl)-5-methyl-1H-pyrrole-3-carboxamide]
- IC50 [1]: 5.4 nM
- IC50 [2]: 67.7 nM

Compound: Cc1ccc(N(C(=O)c2cc(C)n(-c3cc4c(cc3C(=O)N3Cc5ccccc5C[C@H]3CN3CCOCC3)OCO4)c2)c2ccc(O)cc2)cc1 [Example 106, N-(4-Hydroxyphenyl)-5-methyl-N-(4-methylphenyl)-1-(6-{[(3S)-3-(morpholin-4-ylmethyl)-3,4-dihydroisoquinolin-2(1H)-yl]carbonyl}-1,3-benzodioxol-5-yl)-1H-pyrrole-3-carboxamide hydrochloride]
- IC50 [1]: 19.6 nM
- IC50 [2]: 521 nM

Compound: CN1CCN(C[C@@H]2Cc3ccccc3CN2C(=O)c2cc3c(cc2-n2cc(C(=O)N(c4ccc(O)cc4)c4ccc(F)c(F)c4)c4ccccc42)OCO3)CC1 [Example 56, N-(3,4-Difluorophenyl)-N-(4-hydroxyphenyl)-1-(6-{[(3S)-3-[(4-methylpiperazin-1-yl)methyl]-3,4-dihydroisoquinolin-2(1H)-yl]carbonyl}-1,3-benzodioxol-5-yl)-1H-indole-3-carboxamide]
- IC50 [1]: 5 nM
- IC50 [2]: 135 nM

Compound: CN1CCN(C[C@@H]2Cc3ccccc3CN2C(=O)c2cc3c(cc2-n2cc(C(=O)N(CCc4ccccc4)c4ccc(Cl)cc4)c4ccccc42)OCO3)CC1 [Example 36, N-(4-Chlorophenyl)-1-(6-{[(3S)-3-[(4-methylpiperazin-1-yl)methyl]-3,4-dihydroisoquinolin-2(1H)-yl]carbonyl}-1,3-benzodioxol-5-yl)-N-(2-phenylethyl)-1H-indole-3-carboxamide]
- IC50 [1]: 1110 nM
- IC50 [2]: 2420 nM
